Like-named read-outs stand apart in the source and are kept apart here.
Key:
[1] = tested on: mice; details: studies using mice; cited from earlier work
[2] = type: physicochemical; details: warming to room temperature and shaking
From the text: The salts of the present invention allow one to prepare solutions of m-AMSA without the aid of dimethylacetamide. Depending upon the salt, concentration and temperature,standing may result in certain of the solutions of salts forming gels. However, a salt need only remain in solution for a period long enough for it to be administered to a patient.
Stability of Preferred --m-AMSA Salts

Row | SMILES | activity in treating mammals [1] | return of gelled solution to fluid state ([2]; 10 mg/ml after storing at 5 °C) | return of gelled solution to fluid state ([2]; lower concentrations gelled at 5 °C)
1 | COc1cc(NS(C)(=O)=O)ccc1Nc1c2ccccc2nc2ccccc12 [m-AMSA, 4'-(9-acridinylamino)methanesulfon-m-anisidide] | high degree of activity |  | 
2 | COc1cc(NS(C)(=O)=O)ccc1Nc1c2ccccc2nc2ccccc12 [gluconate, 4'-(9-acridinylamino)methanesulfon-m-anisidide D-gluconate] |  | could not be achieved | could be returned to a fluid state

Source: US4704397A, “Pharmaceutical salts of 4-(9-acridinyl-amino) methanesulfon-m-anisidide” (Warner-Lambert Company, priority 1981, dated 1987)
